Values of other authors, collected in patent EP3932402A1, “ADAM17 INHIBITORS FOR USE IN THE PREVENTION AND/OR TREATMENT OF COVID-19” (Max-Delbrück-Centrum für Molekulare Medizin in der …, priority 2020, dated 2022).

What was measured:
ADAM17 = molecular target: T1, ADAM17 (Homo sapiens, UniProt P78536); details: Moss et al., 2008
T1 construct: host or cells: patients (endogenous enzyme)

ADAM17, ADAM10 = details: in combination with trastuzumab; Newton et al

T1 sequence (P78536 215-824): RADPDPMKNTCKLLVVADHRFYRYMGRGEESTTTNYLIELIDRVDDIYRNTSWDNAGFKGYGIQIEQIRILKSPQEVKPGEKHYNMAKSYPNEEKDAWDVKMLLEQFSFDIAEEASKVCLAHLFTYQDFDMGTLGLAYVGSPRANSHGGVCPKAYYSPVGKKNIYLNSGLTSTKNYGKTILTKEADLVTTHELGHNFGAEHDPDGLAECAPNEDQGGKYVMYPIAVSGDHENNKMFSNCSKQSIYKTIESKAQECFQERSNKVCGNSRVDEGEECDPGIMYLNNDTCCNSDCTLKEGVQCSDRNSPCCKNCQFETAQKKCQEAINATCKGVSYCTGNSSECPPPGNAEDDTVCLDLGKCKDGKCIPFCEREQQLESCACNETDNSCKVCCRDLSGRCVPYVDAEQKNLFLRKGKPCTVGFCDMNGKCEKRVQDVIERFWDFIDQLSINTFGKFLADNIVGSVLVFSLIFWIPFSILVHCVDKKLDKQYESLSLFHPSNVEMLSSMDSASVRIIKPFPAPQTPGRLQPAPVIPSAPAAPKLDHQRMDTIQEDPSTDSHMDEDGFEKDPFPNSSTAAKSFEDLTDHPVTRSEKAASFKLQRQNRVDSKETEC

Compound | reason for discontinued development (ADAM17) | proof of concept in sepsis and rheumatoid arthritis (ADAM17; clinical Phase II) | pro-coagulant effects (adult patients) | deep venous thrombosis, incidence (solid tumors and breast cancer) | dose limiting toxicity (solid tumors and breast cancer) | severity of adverse effects (solid tumors and breast cancer) | HER2 cleavage (ADAM17, ADAM10) | clinical response rate (ADAM17, ADAM10)
CON(Cc1ccc(F)cc1)C(=O)C=C1OC(C)(C)OC1=O [BMS-561392, Acetamide, 2-(2,2-dimethyl-5-oxo-1,3-dioxolan-4-ylidene)-N-((4-fluorophenyl)methyl)-N-methoxy-] | concerns over liver toxicity | beneficial effects |  |  |  |  |  | 
COC(=O)N1CC2(CC2)C[C@H](C(=O)NO)[C@H]1C(=O)N1CCN(c2ccccc2)CC1 [INCB7839, methyl (6S,7S)-7-(hydroxycarbamoyl)-6-(4-phenylpiperazine-1-carbonyl)-5-azaspiro[2.5]octane-5-carboxylate] |  |  | observed in some adult patients | 9/41 | deep venous thrombosis | mild to moderate | markedly reduced | markedly reduced
